{"source": "ChEMBL document CHEMBL4196146", "about": "“Targeted Isolation of Neuroprotective Dicoumaroyl Neolignans and Lignans from Sageretia theezans Using in Silico Molecular Network Annotation Propagation-Based Dereplication” (J Nat Prod, 2018)", "key": {"HT-22 [1]": {"tested_on": "HT-22", "experiment": "Neuroprotective activity against glutamate-induced cell death in mouse HT22 cells assessed as cell viability at 12.5 uM pretreated for 2 hrs followed by glutamate-challenge and measured after 20 hrs by MTT assay (reference value: 23 +/- 3.57%)", "assay_type": "functional", "details": "for viability at 12.5 µM: read-out: Activity"}, "HT-22 [2]": {"tested_on": "HT-22", "experiment": "Cytotoxicity against mouse HT22 cells assessed as effect on cell viability at >25 uM after 2 hrs by MTT assay", "assay_type": "cell-based", "details": "ht-22, 2 h"}, "HT-22 [3]": {"tested_on": "HT-22", "experiment": "Neuroprotective activity against glutamate-induced cell death in mouse HT22 cells assessed as increase in cell viability at 1.6 uM pretreated for 2 hrs followed by glutamate-challenge and measured after 20 hrs by MTT assay (reference value: 23 +/- 3.57%)", "assay_type": "functional, cell-based"}}, "note": "Activity calls are given as the source filed them. No cut-off for these calls is given here."}
{"smiles": "COc1cc([C@H](O)[C@H](COC(=O)/C=C\\c2ccc(O)cc2)Oc2ccc(/C=C/COC(=O)/C=C/c3ccc(O)cc3)cc2OC)ccc1O", "values": [{"measurement": "Activity", "setting": "HT-22 [1]", "result": "Active"}, {"measurement": "Activity", "setting": "HT-22 [2]", "result": "Toxic"}, {"measurement": "Activity", "setting": "HT-22 [3]", "result": "Active"}]}
{"smiles": "COc1cc([C@H](O)[C@H](COC(=O)/C=C/c2ccc(O)cc2)Oc2ccc(/C=C/COC(=O)/C=C/c3ccc(O)cc3)cc2OC)ccc1O", "values": [{"measurement": "Activity", "setting": "HT-22 [1]", "result": "Active"}, {"measurement": "Activity", "setting": "HT-22 [2]", "result": "Toxic"}, {"measurement": "Activity", "setting": "HT-22 [3]", "result": "Active"}]}
{"smiles": "COc1cc([C@@H](O)[C@H](COC(=O)/C=C\\c2ccc(O)cc2)Oc2ccc(/C=C/COC(=O)/C=C/c3ccc(O)cc3)cc2OC)ccc1O", "values": [{"measurement": "Activity", "setting": "HT-22 [1]", "result": "Active"}, {"measurement": "Activity", "setting": "HT-22 [2]", "result": "Toxic"}, {"measurement": "Activity", "setting": "HT-22 [3]", "result": "Active"}]}
{"smiles": "COc1cc([C@@H](O)[C@H](COC(=O)/C=C/c2ccc(O)cc2)Oc2ccc(/C=C/COC(=O)/C=C/c3ccc(O)cc3)cc2OC)ccc1O", "values": [{"measurement": "Activity", "setting": "HT-22 [1]", "result": "Active"}, {"measurement": "Activity", "setting": "HT-22 [2]", "result": "Toxic"}, {"measurement": "Activity", "setting": "HT-22 [3]", "result": "Active"}]}
{"smiles": "COc1cc(C[C@@H](COC(=O)/C=C/c2ccc(O)cc2)[C@H](COC(=O)/C=C/c2ccc(O)cc2)Cc2ccc(O)c(OC)c2)ccc1O", "values": [{"measurement": "viability at 12.5 µM", "setting": "HT-22 [1]", "result": 63, "unit": "%"}, {"measurement": "Activity", "setting": "HT-22 [2]", "result": "Toxic"}, {"measurement": "Activity", "setting": "HT-22 [3]", "result": "Active"}]}
{"smiles": "COc1cc(C[C@@H](COC(=O)/C=C\\c2ccc(O)cc2)[C@H](COC(=O)/C=C\\c2ccc(O)cc2)Cc2ccc(O)c(OC)c2)ccc1O", "values": [{"measurement": "viability at 12.5 µM", "setting": "HT-22 [1]", "result": 74, "unit": "%"}, {"measurement": "Activity", "setting": "HT-22 [2]", "result": "Toxic"}, {"measurement": "Activity", "setting": "HT-22 [3]", "result": "Active"}]}
{"smiles": "COc1cc(C[C@@H](COC(=O)/C=C\\c2ccc(O)cc2)[C@H](COC(=O)/C=C/c2ccc(O)cc2)Cc2ccc(O)c(OC)c2)ccc1O", "values": [{"measurement": "viability at 12.5 µM", "setting": "HT-22 [1]", "result": 73, "unit": "%"}, {"measurement": "Activity", "setting": "HT-22 [2]", "result": "Toxic"}, {"measurement": "Activity", "setting": "HT-22 [3]", "result": "Active"}]}
{"smiles": "COc1cc([C@@H](O)[C@H](COC(=O)/C=C/c2ccc(O)cc2)Oc2ccc(/C=C/COC(=O)/C=C\\c3ccc(O)cc3)cc2OC)ccc1O", "values": [{"measurement": "Activity", "setting": "HT-22 [1]", "result": "Active"}, {"measurement": "Activity", "setting": "HT-22 [2]", "result": "Toxic"}, {"measurement": "Activity", "setting": "HT-22 [3]", "result": "Active"}]}
{"smiles": "COc1cc([C@H](O)[C@H](COC(=O)/C=C/c2ccc(O)cc2)Oc2ccc(/C=C/COC(=O)/C=C\\c3ccc(O)cc3)cc2OC)ccc1O", "values": [{"measurement": "Activity", "setting": "HT-22 [1]", "result": "Active"}, {"measurement": "Activity", "setting": "HT-22 [2]", "result": "Toxic"}, {"measurement": "Activity", "setting": "HT-22 [3]", "result": "Active"}]}
{"smiles": "Cc1c(C)c2c(c(C)c1O)CCC(C)(C(=O)O)O2", "note": "(stereo not drawn) [TROLOX]", "values": [{"measurement": "viability at 12.5 µM", "setting": "HT-22 [1]", "result": 52, "unit": "%"}]}
